Source: patent publication US9119777B2 (MICRODOSE THERAPEUTX, INC., priority 2008, dated 2015)
Read-outs that look alike come from different tables or passages of the source.

What was measured:
[1] = in vivo; cited from earlier work
[2] = cited from earlier work
[3] = cited from earlier work; remark: listed apart in the source
[4] = system: receptors in the salivary glands; conditions: cited from earlier work
[5] = Pharmacokinetic profile following dry powder insufflation; type: in vivo, guinea pig; conditions: anaesthetized guinea pigs, dry powder insufflation of oxybutynin
[6] = system: mean arterial blood pressure and heart rate; assay: Mean arterial blood pressure and heart rate after pulmonary delivery; type: in vivo, guinea pig
Source text: (§1) Each point represents the mean value and the vertical bars show s.e. mean.

[7] = system: methacholine induced bronchoconstriction; assay: Methacholine induced bronchoconstriction after pulmonary (i.t.) dry powder delivery; type: in vivo, guinea pig
Source text: Each bar represents the mean value and the vertical lines show s.e. mean.
as §1

SMILES: CC1(C)O[C@@H]2C[C@H]3[C@@H]4CCC5=CC(=O)C=C[C@]5(C)[C@@]4(F)[C@@H](O)C[C@]3(C)[C@]2(C(=O)CO)O1 [triamcinolone acetonide]
- Mean absorption time in the lungs [1]: 2.9 h

SMILES: O=C(O)c1ccc2ccccc2c1O [xinafoic acid]
- pKa [2]: 2.7

SMILES: CCNCC#CCOC(=O)C(O)(c1ccccc1)C1CCCCC1 (centres unmarked) [DEO, N-desethyloxybutynin]
- Levels of DEO ([3]; oral therapy): 10 to 40 ng/mL
- DEO circulating concentration relative to parent compound ([3]; oxybutynin ER, oral): approximately 4 times
- DEO circulating concentration relative to parent compound ([3]; oxybutynin IR, oral): approximately 10 times
- Levels of DEO ([3]; transdermal therapy): ~3 ng/mL
- Affinity and binding duration at receptors in the salivary glands, compared with oxybutynin [4]: greater affinity and binding duration
- Systemic levels of DEO resulting from pulmonary delivery [5]: below the LOQ of the detection method

SMILES: CCC(=O)O[C@]1(C(=O)SCF)[C@H](C)C[C@H]2[C@@H]3C[C@H](F)C4=CC(=O)C=C[C@]4(C)[C@@]3(F)[C@@H](O)C[C@@]21C [fluticasone propionate]
- Mean absorption time in the lungs [1]: 5 to 7 h

SMILES: CCN(CC)CC#CCOC(=O)C(O)(c1ccccc1)C1CCCCC1 (racemic) [oxybutynin, 4-diethylaminobut-2-butynyl phenylcyclohexyl-glycolate]
- pKa [2]: 8.24
- Effect on arterial pressure and heart rate ([6]; guinea pig model of bronchoconstriction): without a prolonged significant effect on arterial pressure and heart rate
- Influence on cardiovascular conditions, compared with Tiotropium ([6]; oxybutynin xinafoate, pulmonary, first 6 hours, anaesthetized guinea pigs): did not have as significant an influence on cardiovascular conditions
- Oral half life ([3]; oral): 2.5 h
- Bronchoprotective effect in guinea pig model of bronchoconstriction [7]: significantly bronchoprotective effect from 0.25 to 24 hours
